This is an account of results in patent US4452813A, “Sulfonate derivatives, process for preparing same and antilipemic compositions containing the derivative” (Taiho Pharmaceutical Company Limited, priority 1981, dated 1984).

SMILES strings stand for the structures.

The nature of series [1]: Acute toxicity, oral, one week. The settings on record: rat, in vivo, 5% gum arabic suspension. From the text:
Six-week-old male Wister rats weighing 180 to 200 g are used, 5 rats in each group. The present compound is suspended in a 5% aqueous solution of gum arabic, and the suspension is orally given to the rats. For one week after the start of the test, the rats are checked evey day for general toxicity symptoms, body weight and death to determine the LD50 value.

A further series concerns the target Chymotripsin (Bos taurus, UniProt P00766). The experiment in a line: Chymotripsin inhibiting activity (hydrolysis of ATEE). In kind it is biochemical. The conditions noted are these: 0.5 h; 1 × 10^-4 mol; 20 min preincubation, ATEE 30 min, 37° C., pH 8.0. The procedure: 2. Chymotripsin Inhibiting Activity
Chymotripsin (0.1 unit) serving as an enzyme solution is added to a specified quantity of buffer solution (pH 8.0) containing 0.1 mole of trishydrochloric acid. To the mixture is further added a 50% ethanol solution of the compound of the invention. The mixture is reacted at 37° C. for 20 minutes.
On completion of the reaction, 10 micromoles of […] (ATEE) serving as a substrate is added to the mixture, and the resulting mixture is reacted at 37° C. for 30 minutes.
After the completion of the reaction, the amount of remaining ATEE is determined by the same hydroxamic acid method as above. The percent chymotripsin inhibition is given by [formula] wherein A is the amount of hydrolzed esters in the reaction system not containing the compound of the invention, and B is the amount of hydrolyzed esters in the reaction system containing the present compound.

In series [2] the target is esterase (purified microsome fraction of the liver of a rat). The experiment in a line: Esterase inhibiting activity (hydrolysis of methyl butyrate). It counts as biochemical. The conditions noted are these: methyl butyrate substrate, pH 8.0, 37° C., 60 minutes. The procedure:
1. Esterase Inhibiting Activity
A 10 micromole quantity of methyl butyrate in a 50% ethanol solution is added as a substrate to a specified amount of buffer solution (pH 8.0) containing 0.1 mole of trishydrochloric acid. To the mixture is further added a 50% ethanol solution of the compound of the invention, immediately followed by addition of an esterase solution prepared from a purified microsome fraction of the liver of a rat (adjusted to hydrolyze 9 micromoles of methyl butyrate at 37° C. in one hour). The mixture is reacted at 37° C. for 60 minutes.
After the reaction, alkaline hydroxylamine is added to the mixture to form a hydroxamic acid derivative of methyl butyrate, and a ferric salt is added to the derivative. The resulting red color is colorimetrically determined (at a wavelength of 540 nm) to determine the amount of remaining methyl butyrate. The esterase inhibiting ratios of the present compound at least at three concentrations are plotted as ordinate, and the logarithms of the concentrations as abscissa to obtain a line, which gives the 50% inhibition concentration (IC50).

Series [3] relates to triglycerides content in the plasma. The experiment in a line: Antilipemic effect: inhibition of olive oil-induced hyperlipidemia, plasma triglycerides. The settings on record: Rattus norvegicus, 100 mg compound in 5 ml olive oil, 5 ml/kg oral, 2 hours, read-out: Antilipemic effect IGI (%) (percent hyperlipidemia inhibition, triglycerides). It counts as in vivo, male Wister rats. The procedure: Seven-week-old male Wister rats weighing 200 to 220 g are used, 5 rats in each group.
The compound of the invention (100 mg) is dissolved in 5 ml of olive oil. The olive oil containing the compound is orally given to the rat with a probe at a dose of 5 ml/kg. Two hours thereafter, 6 ml of whole blood is withdrawn from the descending aorta of the rat under ether anesthesia with a syringe containing heparin. The blood is centrifuged at 5° C. and 3000 r.p.m. to obtain the plasma. The plasma collected is used for determining the triglycerides content, using a triglycerides measuring kit (trade mark "Triglycerides-B Test Wako," product of Wako Junyaku Co., Ltd., Japan). Olive oil containing no compound is similarly given to a control group, while no treatment is conducted for a normal group. The triglycerides content in the plasma is also determined for these groups in the same manner as is the case with the test groups.
The percent hyperlipidemia inhibition achieved by the present compound is given by [formula] in which A is the triglycerides content of the control group, B is the triglycerides content of the normal group, and C is the triglycerides content of the group to which the present compound is given.

In the case of `CCOc1ccc(S(=O)(=O)OCC(=O)CC(C)C2CCCCC2)cc1` (stereo not drawn) [Compound 11], the 50% lethal dose (LD50) at 168 h in series [1] is above 3000 mg/kg. The compound also registered an inhibition at 100 µM against Chymotripsin of 19%. In addition, the IC50 in series [2] turned out to be 7.2 µM. Further, the inhibition in vivo at 100 mg/kg in series [3] amounted to 60%.
In the same order, the values of `CC1CCCCC1CC(=O)COS(=O)(=O)c1ccccc1` (stereo not drawn) [Compound 17, 1-benzenesulfonyloxy-3-(2-methylcyclohexyl)-2-propanone] are above 2000 mg/kg, 97%, 0.032 µM and 72%.
`COc1ccc(S(=O)(=O)OCC(=O)C(C)CC2CCCCC2)cc1` (stereo not drawn) [Compound 3] showed an LD50 at 168 h in series [1] above 3000 mg/kg. The compound further yielded an inhibition at 100 µM against Chymotripsin of 93%. In series [2], this compound gave an IC50 of 4 µM. The inhibition in vivo at 100 mg/kg in series [3] came to 63%.
In series [1], `CC(C)[C@H]1CC[C@H](C(=O)COS(=O)(=O)c2ccccc2)CC1` [Compound 25, trans-2-(benzene-sulfonyloxy)-1-(4-isopropylcyclohexyl)-1-ethanone] gave an LD50 at 168 h above 3000 mg/kg. Also, 100 µM produced 62% inhibition against Chymotripsin. Further, the midpoint of inhibition in series [2], the IC50, lay at 0.065 µM. Moreover, the inhibition in vivo at 100 mg/kg in series [3] was 90%.
In the same order, the values of `CCC1CCC(C(=O)COS(=O)(=O)c2ccccc2)CC1` (stereo not drawn) [Compound 22] are above 2000 mg/kg, 58%, 0.2 µM and 59%.
Taken in the same sequence, the figures for `CCOc1ccc(S(=O)(=O)OCC(=O)C(C)CC2CCCCC2)cc1` (stereo not drawn) [Compound 4] were above 3000 mg/kg, 78%, 23 µM and 52%.
In the same order, the values of `Cc1ccc(S(=O)(=O)OCC(=O)[C@H]2CC[C@H](C(C)(C)C)CC2)cc1` [Compound 37] are above 3000 mg/kg, 22%, 5.4 µM and 66%.
`CCOc1ccc(S(=O)(=O)OCC(=O)[C@H]2CC[C@@H](C(C)C)CC2)cc1` [Compound 26]: the LD50 at 168 h in series [1] was above 3000 mg/kg. In addition, the inhibition at 100 µM against Chymotripsin turned out to be 14%. The IC50 in series [2] is 11 µM. In series [3], the inhibition in vivo at 100 mg/kg turned out to be 50%.
In the same order, the values of `CC(C)C[C@H]1CC[C@H](C(=O)COS(=O)(=O)c2ccccc2)CC1` [Compound 31] are above 3000 mg/kg, 43%, 1.6 µM and 79%.
In the same order, the values of `COc1ccc(S(=O)(=O)OCC(=O)CC(C)C2CCCCC2)cc1` (stereo not drawn) [Compound 10, 4-cyclohexyl-1-(4-methoxybenzenesulfonyloxy)2-pentanone] are above 3000 mg/kg, 22%, 3.5 µM and 46%.
In turn, `Cc1cc(C)c(S(=O)(=O)OCC(=O)[C@H]2CC[C@H](C(C)C)CC2)c(C)c1` [Compound 29] returned an LD50 at 168 h in series [1] above 3000 mg/kg. Moreover, the IC50 in series [2] worked out at 0.13 µM.
In series [1], `Cc1cc(C)c(S(=O)(=O)OCC(=O)CC(C)C2CCCCC2)c(C)c1` (stereo not drawn) [Compound 12] yielded an LD50 at 168 h above 3000 mg/kg. The compound also registered an inhibition at 100 µM at Chymotripsin of 24%. Further, the midpoint of inhibition in series [2], the IC50, lay at 1 µM. Moreover, in series [3], the inhibition in vivo at 100 mg/kg was 39%.
For `Cc1ccc(S(=O)(=O)OCC(=O)CC2CCCCC2C)cc1` (stereo not drawn) [Compound 18], in series [1], the LD50 at 168 h was above 2000 mg/kg. Further, on Chymotripsin, the inhibition at 100 µM came to 72%. This compound also registered an IC50 in series [2] of 8.4 µM.
As for `Cc1cc(C)c(S(=O)(=O)OCC(=O)[C@H]2CC[C@@H](C(C)C)CC2)c(C)c1` [Compound 28], the median lethal dose (LD50) at 168 h in series [1] was above 3000 mg/kg. Also, the IC50 in series [2] stood at 1.2 µM.
Compound `Cc1ccc(S(=O)(=O)OCC(=O)[C@H]2CC[C@@H](C(C)(C)C)CC2)cc1` [Compound 36] came in with an LD50 at 168 h in series [1] above 3000 mg/kg. Besides, the inhibition at 100 µM against Chymotripsin worked out at 44%. The compound further registered an IC50 in series [2] of 86 µM. The inhibition in vivo at 100 mg/kg in series [3] stood at 52%.
`Cc1ccc(S(=O)(=O)OCC(=O)CC(C)C2CCCCC2)cc1` (stereo not drawn) [Compound 9] showed an LD50 at 168 h in series [1] above 2000 mg/kg. The inhibition at 100 µM against Chymotripsin was 31%. In series [2], half-maximal inhibition (IC50) was put at 4.2 µM. In addition, the inhibition in vivo at 100 mg/kg in series [3] was found to be 70%.
For the compound `CCOc1ccc(S(=O)(=O)OCC(=O)CC2CCC(C)CC2)cc1` (stereo not drawn) [Compound 16], in series [1], the LD50 at 168 h is above 3000 mg/kg. At Chymotripsin, this compound registered an inhibition at 100 µM of 81%. Besides, in series [2], the IC50 worked out at 5 µM. Also, the inhibition in vivo at 100 mg/kg in series [3] worked out at 11%.
In the same order, the values of `CCOc1ccc(S(=O)(=O)OCC(=O)C(CC)CC2CCCCC2)cc1` (stereo not drawn) [Compound 7] are above 3000 mg/kg, 13%, 200 µM and 71%.
In the same order, the values of `CC(C)C[C@H]1CC[C@@H](C(=O)COS(=O)(=O)c2ccccc2)CC1` [Compound 30] are above 3000 mg/kg, 30%, 4 µM and 57%.
Taken in the same sequence, the figures for `CCC(C)[C@H]1CC[C@H](C(=O)COS(=O)(=O)c2ccccc2)CC1` (stereo partly drawn) [Compound 33] were above 3000 mg/kg, 19%, 0.17 µM and 76%.
Take `CC(C)C1CCC(CC(=O)COS(=O)(=O)c2ccccc2)CC1` (stereo not drawn) [Compound 21]: the LD50 at 168 h in series [1] is above 3000 mg/kg. The compound further came in with an inhibition at 100 µM against Chymotripsin of 94%. The compound further yielded an IC50 in series [2] of 6 µM. Moreover, the inhibition in vivo at 100 mg/kg in series [3] stood at 70%.
In series [1], `CCOc1ccc(S(=O)(=O)OCC(=O)[C@H]2CC[C@H](C(C)C)CC2)cc1` [Compound 27] displayed a median lethal dose (LD50) at 168 h above 3000 mg/kg. Further, on Chymotripsin, the inhibition at 100 µM was determined as 35%. The compound further registered an IC50 in series [2] of 2 µM. In addition, the inhibition in vivo at 100 mg/kg in series [3] stood at 76%.
Taken in the same sequence, the figures for `CCOc1ccc(S(=O)(=O)OCC(=O)C(CC)C2CCC(C)CC2)cc1` (stereo not drawn) [Compound 14] were above 3000 mg/kg, 40%, 40 µM and 81%.
In series [1], `CC(C)(C)[C@H]1CC[C@@H](C(=O)COS(=O)(=O)c2ccccc2)CC1` [Compound 34] yielded an LD50 at 168 h above 3000 mg/kg. The same compound registered an IC50 in series [2] of 4.6 µM. The inhibition in vivo at 100 mg/kg in series [3] turned out to be 52%.
In series [1], `CC(C)[C@H]1CC[C@@H](C(=O)COS(=O)(=O)c2ccccc2)CC1` [Compound 24] showed an LD50 at 168 h above 3000 mg/kg. Besides, at 100 µM the inhibition against Chymotripsin was 16%. In series [2], this compound came in with an IC50 of 0.7 µM. Moreover, the inhibition in vivo at 100 mg/kg in series [3] turned out to be 60%.
Turning to `CCC(CC1CCCCC1)C(=O)COS(=O)(=O)c1ccc(OC)cc1` (stereo not drawn) [Compound 6], the LD50 at 168 h in series [1] was above 3000 mg/kg. For the same compound, the inhibition in vivo at 100 mg/kg in series [3] is 52%.
Compound `CCC(C(=O)COS(=O)(=O)c1ccc(C)cc1)C1CCC(C)CC1` (stereo not drawn) [Compound 13] had an LD50 at 168 h in series [1] above 2000 mg/kg. The same compound gave an inhibition at 100 µM against Chymotripsin of 50%. The compound further gave an IC50 in series [2] of 20 µM.
In the case of `CC(C)(C)[C@H]1CC[C@H](C(=O)COS(=O)(=O)c2ccccc2)CC1` [Compound 35], the LD50 at 168 h in series [1] was above 3000 mg/kg. Further, the IC50 in series [2] worked out at 4.6 µM. Further, in series [3], the inhibition in vivo at 100 mg/kg was found to be 72%.
